What all share (assay type): in vivo
For one series, the system named is Aulacophora femoralis. Kind of series: Test against cucurbit leaf beetle (Aulacophora femoralis), leaf dip. As to conditions: active compound concentration of 500 ppm, second instar larvae on cucumber leaves, after 7 days; for pest or weed control at 500 ppm: Aulacophora, foliar, 168 h, read-out: insecticidal activity. On the procedure:
(§1) Unless not mentioned otherwise, the test solutions were prepared as follows:
(§2) Containing as solvent: Dimethylformamide, 3 parts by weight; and as emulsifier: Polyoxyethylene alkyl phenyl ether, 1 part by weight
(§3) To prepare the test solution, 1 part by weight of an active compound is mixed with the above-mentioned amount of solvent containing the above-mentioned amount of emulsifier, and the mixture is diluted with water to the desired concentration.
Leaves of cucumber were immersed in the test solution at the appropriate concentration, and the leaves were dried in air. The leaves were then put in a plastic cup containing sterilized black soil and five Aulacophora femoralis at second instar larvae were released in the cup. The cups were placed in a temperature-controlled chamber at 25° C. After 7 days, the number of dead larvae was counted, and thus the insecticidal activity was calculated. An insecticidal activity of 100% means that all larvae were killed, whereas an insecticidal activity of 0% means that no larva was killed.

For another series, the system named is Lucilia cuprina. Description: Lucilia cuprina (48 h) larval test. Particulars: for mortality at 100 ppm: Lucilia cuprina, 48 h, read-out: activity (larval mortality). Here is the method: Species: Lucilia cuprina 1st instar larvae (age 24 hrs)
(§4) Solvent: dimethyl sulfoxide
10 mg active compound are dissolve in 0.5 ml dimethyl sulfoxide. Serial dilutions are made to obtain the desired rates. Approximately 20 Lucilia cuprina 1st instar larvae are transferred into a test tube containing 1 cm^3 of minced horse meat and 0.5 ml aqueous dilution of test compound. After 48 hrs percentage of larval mortality are recorded. 100% efficacy all larvae are killed, % efficacy normally developed larvae after 48 hrs.

The next series concerns Ctenocephalides felis. Kind of series: Ctenocephalides felis-test (CTECFE). Particulars: adult unfed fleas, after 2 days; for activity (mortality): application rate of 100 ppm in cattle blood; for mortality at 100 ppm: Ctenocephalides felis, in Bos taurus, 48 h, read-out: activity (mortality), application rate of 100 ppm in cattle blood. On the procedure:
as §4
To produce a suitable preparation of active compound, 10 mg of active compound are dissolved in 0.5 ml solvent, and the concentrate is diluted with cattle blood to the desired concentration. Approximately 20 adult unfed (Ctenocepahlides felis) are placed in flea chambers. The blood chamber, sealed with parafilm on the bottom, are filled with cattle blood supplied with compound solution and placed on top of the flea chamber, so that the fleas are able to suck the blood. The blood chamber is heated to 37° C. whereas the flea chamber is kept at room temperature. After 2 days mortality in % is determined. 100% means that all the fleas have been killed; 0% means that none of the fleas have been killed.

The next series has as its system Spodoptera litura. Description: Test against tobacco cutworm (Spodoptera litura) larvae, leaf dip. As to conditions: active compound concentration of 100 ppm, third instar larvae on sweet potato leaves, after 7 days; for pest or weed control at 100 ppm: foliar, 168 h, read-out: insecticidal activity. On the procedure:
as §1, §2, §3
Leaves of sweet potato were immersed in the test solution at the appropriate concentration, and the leaves were dried in air. The leaves were then placed in a petri dish having a diameter of 9 cm, and ten Spodoptera litura at third instar larvae were released therein. The petri dishes were placed in a temperature-controlled chamber at 25° C. After 2 days and 4 days more sweet potato leaves were added. After 7 days, the number of dead larvae was counted to calculate the insecticidal activity. An insecticidal activity of 100% means that all larvae were killed, whereas an insecticidal activity of 0% means that no larva was killed. In the current test, the results of two petri dishes for each treatment were averaged.

The subject of another series is Tetranychus urticae. Description: Test against two-spotted spider mite (Tetranychus urticae), spray. As to conditions: active compound concentration of 500 ppm, adult mites on kidney bean, after 7 days; for pest or weed control at 500 ppm: Tetranychus urticae, 168 h, read-out: acaricidal activity. Here is the method:
as §1, §2, §3
50 to 100 adult mites of Tetranychus urticae were inoculated to leaves of kidney bean at two-leaf stage planted in a pot of 6 cm in diameter. After one day, test solution at the appropriate concentration was sprayed thereon in a sufficient amount using a spray gun. After the spraying, the plant pot was placed inside a greenhouse, and after 7 days, the acaricidal activity was calculated. An acaricidal activity of 100% means that all mites were killed, whereas an acaricidal activity of 0% means that no mite was killed.

The test system of the next series is Musca domestica. Kind of series: Musca domestica-test. Particulars: for activity (mortality): application rate of 100 ppm, adults, after 2 days; for mortality at 100 ppm: Musca domestica, 48 h, read-out: activity (mortality). On the procedure:
as §4
To produce a suitable preparation of active compound, 10 mg of active compound are dissolved in 0.5 ml solvent, and the concentrate is diluted with water to the desired concentration. Prior to the assay, a piece of kitchen sponge is soaked with a mixture of sugar and compound solution and placed into a container. 10 adults (Musca domestica) are placed into the container and closed with a perforated lid. After 2 days mortality in % is determined. 100% means that all the flies have been killed; 0% means that none of the flies have been killed.

In the next series the test system is Boophilus microplus. Description: Boophilus microplus-test (injection). Particulars: Rhipicephalus microplus, 168 h, read-out: activity (mortality in %; 100% means that all eggs are infertile). Here is the method:
as §4
To produce a suitable preparation of active compound, 10 mg of active compound are dissolved in 0.5 ml solvent, and the concentrate is diluted with solvent to the desired concentration. Five adult engorged female ticks (Boophilus microplus) are injected with 1 μl compound solution into the abdomen. Ticks are transferred into replica plates and incubated in a climate chamber for a period of time. Egg deposition of fertile eggs is monitored.
After 7 days mortality in % is determined. 100% means that all eggs are infertile; 0% means that all eggs are fertile.

Several values for one entry are separate records, joined by “and”; a condition that tells them apart may be missing. Identical values can stand only once.

Regarding `N#Cc1ccc2cc(C(=O)Nc3c(Br)cc(C(F)(F)F)cc3Br)ccc2n1` [2-3], the insecticidal activity in the series with Aulacophora femoralis is on record as 100%. Also, in the series on Lucilia cuprina (application rate of 100 ppm, 1st instar larvae, after 48 hrs), the “activity (larval mortality)” value worked out at 80%. In addition, the “activity (mortality)” value in the series with Ctenocephalides felis is recorded as 90%.
With `CCc1cc(C(F)(C(F)(F)F)C(F)(F)C(F)(F)F)cc(C)c1NC(=O)c1ccc2nc(C#N)ccc2c1` (stereo not shown) [2-90], the insecticidal activity in the series with Spodoptera litura and with Aulacophora femoralis was 100% each time. For the same molecule, the acaricidal activity in the series with Tetranychus urticae is recorded as 100%. Also, in the series with Musca domestica, the “activity (mortality)” value worked out at 80%.
As to `O=C(Nc1c(Br)cc(C(F)(C(F)(F)F)C(F)(F)C(F)(F)F)cc1Br)c1ccc2ncccc2c1` (stereo not shown) [2-108], the insecticidal activity in the series with Spodoptera litura and in the series on Aulacophora femoralis was 100% in each case. Further, the “activity (mortality)” value with Ctenocephalides felis is 80% and 95%; with Musca domestica, 80%.
Consider `N#Cc1ccc2cc(C(=O)Nc3c(Br)cc(C4(F)C(F)(F)C(F)(F)C(F)(F)C(F)(F)C4(F)F)cc3Br)ccc2n1` [2-133], for which the insecticidal activity in the series with Spodoptera litura and with Aulacophora femoralis was 100% each time. Besides, in the series on Tetranychus urticae, the acaricidal activity was 100%. Also, in the series on Ctenocephalides felis, the “activity (mortality)” value turned out to be 90%.
For orientation: mortality means the share of the test organisms that died. For the molecule `Cc1cc(C(F)(C(F)(F)F)C(F)(F)F)cc(C)c1NC(=O)c1cc(Cl)c2ncc(Cl)cc2c1` [2-214, 3,8-dichloro-N-[4-(1,1,1,2,3,3,3-heptafluoropropan-2-yl)-2,6-dimethylphenyl]quinoline-6-carboxamide], the pest or weed control at 100 ppm with Spodoptera litura came out at 100%. For the same molecule, the pest or weed control at 500 ppm in the series with Aulacophora femoralis came out at 100%. Besides, the mortality at 100 ppm in the series on Lucilia cuprina was found to be 90%. Also, in the series with Boophilus microplus, the mortality at 0.02 mg was 100%.
With `Cc1cc(C(F)(C(F)(F)F)C(F)(F)F)cc(C)c1NC(=O)c1ccc2nc(C#N)ccc2c1` [Compound No. 2-20, 2-cyano-N-[4-(1,1,1,2,3,3,3-heptafluoropropan-2-yl)-2,6-dimethylphenyl]quinoline-6-carboxamide], the pest or weed control at 100 ppm in the series with Spodoptera litura was 100%. Besides, the pest or weed control at 500 ppm with Aulacophora femoralis was determined as 100%. Besides, the mortality at 100 ppm in the series with Lucilia cuprina turned out to be 100%; in the series on Ctenocephalides felis it was 100%; with Musca domestica it was 95%. Also, in the series on Boophilus microplus, the mortality at 0.02 mg is 100%.
As to `O=C(Nc1c(I)cc(C(F)(C(F)(F)F)C(F)(F)C(F)(F)F)cc1OC(F)F)c1ccc2ncccc2c1` (stereo not shown) [Compound No. 2-174, N-[2-(difluoromethoxy)-6-iodo-4-(1,1,1,2,3,3,4,4,4-nonafluorobutan-2-yl)phenyl]quinoline-6-carboxamide], in the series on Spodoptera litura, the pest or weed control at 100 ppm was determined as 100%. The pest or weed control at 500 ppm with Tetranychus urticae and with Aulacophora femoralis was 100% throughout. For the same molecule, the mortality at 100 ppm in the series with Lucilia cuprina, with Ctenocephalides felis and with Musca domestica was 100% each time. In addition, the mortality at 0.02 mg in the series on Boophilus microplus is 100%.
As for `O=C(Nc1c(Br)cc(C(F)(C(F)(F)F)C(F)(F)Br)cc1OC(F)F)c1ccc2c(ccc[n+]2[O-])c1` (stereo not shown) [Compound No. 2-202, N-[2-bromo-4-(1-bromo-1,1,2,3,3,3-hexafluoropropan-2-yl)-6-(difluoromethoxy)phenyl]quinoline-6-carboxamide 1-oxide], the pest or weed control at 500 ppm in the series with Tetranychus urticae and in the series on Aulacophora femoralis was 100% throughout. Also, the figures for the mortality at 100 ppm in the series on Lucilia cuprina, in the series with Ctenocephalides felis and with Musca domestica were 100%, 95% and 100%, respectively. The mortality at 0.02 mg in the series on Boophilus microplus worked out at 100%.
Consider `Cc1cc(C(F)(C(F)(F)F)C(F)(F)F)cc(C)c1NC(=O)c1ccc2ncc(Cl)cc2c1` [Compound No. 2-213, 3-chloro-N-[4-(1,1,1,2,3,3,3-heptafluoropropan-2-yl)-2,6-dimethylphenyl]quinoline-6-carboxamide], for which the pest or weed control at 100 ppm in the series on Spodoptera litura is 100%. Moreover, the pest or weed control at 500 ppm in the series with Aulacophora femoralis was 100%. The mortality at 100 ppm is 100% in the series on Lucilia cuprina and 80% in the series with Musca domestica. The mortality at 0.02 mg with Boophilus microplus stood at 100%.

The values above are taken from patent US8822691B2, “Pesticidal carboxamides” (Bayer CropScience AG, priority 2009, dated 2014).
